Data from patent publication US10980835B2, “Arsenic trioxide for treatment of PIN1-associated disorders” (Beth Israel Deaconess Medical Center, Inc., priority 2016, dated 2021).

Assays:
[1] = tested on: TNBC 231 and 159 cells (breast TICs); assay: Serial mammosphere formation assay; type: cell-based, human; conditions: serial propagation M1-M4
Experimental: FIG. 22C is a graph showing that ATO and ATRA co-treatment dramatically reduces tumor growth.
(§1) To examine the effects of ATO and ATRA on TICs in TNBC, 231 and 159 cells were treated with ATO (1 μM), ATRA (10 μM) or their combination, followed by assaying the breast TIC-enriched CD24-CD44+ or ALDH+ population using fluorescence-activated cell sorting (FACS). […] To examine the effects of ATO and ATRA on self-renewal of breast TICs, different TNBC cells were treated with ATO, ATRA or their combination, followed by a serial mammosphere formation assay.
Breast TICs are notoriously resistant to cytotoxic chemotherapy drugs such as taxol, which is commonly used to treat TNBC. While taxol treatment kills non-TIC cancer cells, it is ineffective against TICs, leading to TIC-enriched taxol-resistant cells. […] Thus, the combination of ATO and ATRA inhibits the growth of taxol-resistant TNBCs. This raised the question of whether the combination of ATO and ATRA could inhibit tumor initiation and growth of breast TICs in vivo. Accordingly, the effects of ATO and ATRA combination therapy on tumor initiation of TNBCs were assayed using a limiting dilution assay in mice, a standard approach to determine tumor initiation.

[2] = tested on: Hs578t and SUM159 cells; assay: FACS quantification of ALDH+ cells; type: cell-based, human
Source text: (§2) FIG. 11 is a series of plots generated by fluorescence-activated cell sorting (FACS) and a corresponding graph that depicts the quantification of aldehyde dehydrogenase-positive (ALDH+) cells following treatment with ATRA, ATO, or a combination of ATRA and ATO. ALDH is tumor marker associated with breast cancer stem cells. The fraction of ALDH+ cells is decreased in Hs578T cells treated with ATRA+ATO, as compared to those treated with either ATRA or ATO, alone.
as §2, with “12” for “11”, “SUM159” for “Hs578T”
Two different human triple negative breast cancer cell lines (Hs578t and SUM159) were treated with ATRA, ATO, or a combination of ATRA and ATO. Fluorescence-activated cell sorting (FACS) was used to quantify the proportion of aldehyde dehydrogenase-positive (ALDH+) cells following treatment. […]

[3] = tested on: 231 and 159 cells; assay: FACS of breast TIC-enriched CD24-CD44+ or ALDH+ population; type: cell-based, human
Experimental: as §1

[4] = tested on: Human triple negative breast cancer MBA-MB-231 cells; assay: Mouse orthotopic implantation model with MBA-MB-231 cells; type: in vivo; conditions: nude mice, ATO 2 mg/kg every other day, ATRA 5 mg 21 day pellets, 6 weeks
Source text: FIG. 17A is a graph showing that combination treatment with ATRA and ATO results in greater tumor growth inhibition than treatment with either ATRA or ATO, alone. FIG. 17B is image of the excised tumors corresponding to FIG. 17A. FIG. 17C is a graph depicting tumor volume corresponding to the tumors pictured in FIG. 17B.
Human triple negative breast cancer MBA-MB-231 cells were orthotopically implanted into nude mice. A week after tumor growth was notable, mice were randomly grouped and treated with either ATO (2 mg/kg every other day), ATRA (5 mg 21 day slow releasing pellets), or a combination of both ATO (2 mg/kg every other day) and ATRA (5 mg 21 day slow releasing pellets). Tumor growth was measured weekly for 6 weeks.

[5] = tested on: MDA-MB-231 breast cancer cell line; assay: Intracellular arsenic levels by ICP-Masspec; type: cell-based, human; conditions: MDA-MB-231 cells treated with ATRA, relative to control
Experimental: FIGS. 16A-C are a series of graphs showing that ATRA increases intracellular arsenic concentration measured by ICP-Masspec.
Intracellular arsenic levels were measured by ICP-Masspec in breast cancer cells lines treated with either ATRA, shRNA knockdown of AQP9, or overexpression of AQP9.

[6] = tested on: triple negative breast cancer PDX; assay: Triple negative breast cancer patient derived xenograft (PDX) mouse model; type: in vivo
Source text: FIGS. 18A-D show the effect of ATO and ATRA on a triple negative breast cancer patient-derived xenograft (PDX) mouse model, where treatment was initiated two weeks after implantation. FIG. 18A is a graph showing that combination treatment with ATRA and ATO results in greater tumor growth inhibition than treatment with either ATRA or ATO, alone. FIG. 18B is image of the excised tumors corresponding to FIG. 18A. FIG. 18C is a graph depicting tumor volume corresponding to the tumors picture in FIG. 18B.
FIGS. 19A-C show the effect of ATO and ATRA on a triple negative breast cancer PDX mouse model, where treatment was initiated when the tumor volume reached to 250 mm^3. FIG. 19A is a graph showing that combination treatment with ATRA and ATO results in greater tumor growth inhibition than treatment with either ATRA or ATO, alone. FIG. 19B is image of the excised tumors corresponding to FIG. 19A. FIG. 19C is a graph depicting tumor volume corresponding to the tumors picture in FIG. 19B.
FIGS. 20A-D show the effect of ATO and ATRA on a triple negative breast cancer PDX mouse model, where treatment was initiated when the tumor volume reached to 300 mm^3. FIG. 20A is a graph showing that combination treatment with ATRA and ATO results in greater tumor growth inhibition than treatment with either ATRA or ATO, alone. FIG. 20B is image of the excised tumors corresponding to FIG. 20A. FIG. 20C is a graph depicting tumor volume corresponding to the tumors picture in FIG. 20B. FIG. 20D is a western blot depicting a decrease in Pin1 expression following treatment with either ATO, ATRA, or a combination of ATO and ATRA.
(§3) A PDX mouse model of triple negative breast cancer was treated with either ATO (2 mg/kg every other day), ATRA (5 mg 21 day slow releasing pellets), or a combination of both ATO (2 mg/kg every other day) and ATRA (5 mg 21 day slow releasing pellets). Treatment was initiated two weeks after implantation. Tumor growth was measured weekly for 7 weeks.
as §3, with “Furthermore, a PDX” for “A PDX”, “initiated when the tumor volume reached 250 mm^3.” for “initiated two weeks after implantation.”, “for 6” for “for 7”
as §3, with “Finally, a PDX” for “A PDX”, “initiated when the tumor volume reached 300 mm^3.” for “initiated two weeks after implantation.”, “for 6” for “for 7”, “weeks. […]” for “weeks.”

[7] = target: T1, Pin1 (Homo sapiens, UniProt Q13526); assay: Pin1 protein levels in triple negative breast cancer cell lines by immunoblotting; type: cell-based; conditions: SUM159, Hs578T and MBA-MB-231 cells
T1 construct: followed by assaying Pin1 levels using immunoblotting; endogenous in cells; host or cells: SUM159, Hs578T, MDA-MB-231 (printed MBA-MB-231)
T1 sequence (Q13526 whole entry): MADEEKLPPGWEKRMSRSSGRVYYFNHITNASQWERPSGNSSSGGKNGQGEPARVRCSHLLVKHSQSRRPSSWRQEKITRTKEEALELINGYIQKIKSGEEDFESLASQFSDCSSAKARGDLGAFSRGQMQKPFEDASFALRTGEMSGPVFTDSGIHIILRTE
Source text: FIG. 5 is a series of western blots and corresponding graphs of quantified protein expression depicting arsenic trioxide-induce Pin1 degradation in triple-negative breast cancer cell lines (SUM159, Hs578T, and MBA-MB-231).
FIG. 7 is a series of western blots and corresponding graphs of quantified protein expression levels showing that, in triple-negative breast cancer cell lines (SUM159 and Hs578T), arsenic trioxide-induced Pin1 degradation is blocked by the proteasome inhibitor, MG132.
FIG. 8 is a series of western blots and corresponding graphs of quantified protein expression levels showing that all-trans retinoic acid (ATRA) induces Pin1 degradation in triple-negative breast cancer cell lines (SUM159, Hs578T, and MBA-MB-231).
FIG. 9 is a series of western blots and corresponding graphs of quantified protein expression levels depicting decrease in Pin1 protein expression in triple-negative breast cancer cells (SUM159, Hs578T, and MBA-MB-231) following combination treatment with ATO and ATRA, as compared to treatment with either ATO or ATRA, alone. […]
Two different human triple negative breast cancer cell lines (SUM159 and Hs578T) were treated with different concentrations of ATO in the presence of the proteasome inhibitor MG132 or vehicle control DMSO. […] cells were collected and lysed and levels of Pin1 protein expression were quantified by immunoblotting. […]

CC1=C(/C=C/C(C)=C/C=C/C(C)=C/C(=O)O)C(C)(C)CCC1 [ATRA, all-trans retinoic acid]
Mammosphere formation efficiency [1]: strongly impaired mammosphere formation efficiency at M2-3
Proportion of ALDH+ cells [2]: decreased the proportion of ALDH+ cells
Breast TIC-enriched CD24-CD44+ or ALDH+ population [3]: significantly reduced breast TIC-enriched population
Tumor growth [4]: inhibited tumor growth
Intracellular arsenic concentration [5]: increase intracellular arsenic concentrations relative to control
Pin1 levels in tumors ([6]; treatment initiated at 300 mm^3): decreased
Tumor growth ([6]; treatment initiated two weeks after implantation, 7 weeks): inhibited tumor growth
Tumor growth ([6]; treatment initiated when tumor volume reached 250 mm^3, 6 weeks): inhibited tumor growth
Tumor growth ([6]; treatment initiated when tumor volume reached 300 mm^3, 6 weeks): inhibited tumor growth
Pin1 levels (degradation) [7]: induced Pin1 degradation in a dose-dependent manner
